In patent US8658685B2, “Methods for treatment of kallikrein-related disorders” (Activesite Pharmaceuticals, Inc., priority 2008, dated 2014):

B1: α2-macroglobulin: inhibitor of the kallikrein pathway (protein, UniProt P01023 24-1474, looked up)
Alpha-2-macroglobulin: SVSGKPQYMVLVPSLLHTETTEKGCVLLSYLNETVTVSASLESVRGNRSLFTDLEAENDVLHCVAFAVPKSSSNEEVMFLTVQVKGPTQEFKKRTTVMVKNEDSLVFVQTDKSIYKPGQTVKFRVVSMDENFHPLNELIPLVYIQDPKGNRIAQWQSFQLEGGLKQFSFPLSSEPFQGSYKVVVQKKSGGRTEHPFTVEEFVLPKFEVQVTVPKIITILEEEMNVSVCGLYTYGKPVPGHVTVSICRKYSDASDCHGEDSQAFCEKFSGQLNSHGCFYQQVKTKVFQLKRKEYEMKLHTEAQIQEEGTVVELTGRQSSEITRTITKLSFVKVDSHFRQGIPFFGQVRLVDGKGVPIPNKVIFIRGNEANYYSNATTDEHGLVQFSINTTNVMGTSLTVRVNYKDRSPCYGYQWVSEEHEEAHHTAYLVFSPSKSFVHLEPMSHELPCGHTQTVQAHYILNGGTLLGLKKLSFYYLIMAKGGIVRTGTHGLLVKQEDMKGHFSISIPVKSDIAPVARLLIYAVLPTGDVIGDSAKYDVENCLANKVDLSFSPSQSLPASHAHLRVTAAPQSVCALRAVDQSVLLMKPDAELSASSVYNLLPEKDLTGFPGPLNDQDNEDCINRHNVYINGITYTPVSSTNEKDMYSFLEDMGLKAFTNSKIRKPKMCPQLQQYEMHGPEGLRVGFYESDVMGRGHARLVHVEEPHTETVRKYFPETWIWDLVVVNSAGVAEVGVTVPDTITEWKAGAFCLSEDAGLGISSTASLRAFQPFFVELTMPYSVIRGEAFTLKATVLNYLPKCIRVSVQLEASPAFLAVPVEKEQAPHCICANGRQTVSWAVTPKSLGNVNFTVSAEALESQELCGTEVPSVPEHGRKDTVIKPLLVEPEGLEKETTFNSLLCPSGGEVSEELSLKLPPNVVEESARASVSVLGDILGSAMQNTQNLLQMPYGCGEQNMVLFAPNIYVLDYLNETQQLTPEIKSKAIGYLNTGYQRQLNYKHYDGSYSTFGERYGRNQGNTWLTAFVLKTFAQARAYIFIDEAHITQALIWLSQRQKDNGCFRSSGSLLNNAIKGGVEDEVTLSAYITIALLEIPLTVTHPVVRNALFCLESAWKTAQEGDHGSHVYTKALLAYAFALAGNQDKRKEVLKSLNEEAVKKDNSVHWERPQKPKAPVGHFYEPQAPSAEVEMTSYVLLAYLTAQPAPTSEDLTSATNIVKWITKQQNAQGGFSSTQDTVVALHALSKYGAATFTRTGKAAQVTIQSSGTFSSKFQVDNNNRLLLQQVSLPELPGEYSMKVTGEGCVYLQTSLKYNILPEKEEFPFALGVQTLPQTCDEPKAHTSFQISLSVSYTGSRSASNMAIVDVKMVSGFIPLKPTVKMLERSNHVSRTEVSSNHVLIYLDKVSNQTLSLFFTVLQDVPVRDLKPAIVKVYDYYETDEFAIAEYNAPCSKDLGNA
B2: complement I inhibitors: inhibitors of the kallikrein pathway; probably complement 1 inhibitor (C1-INH) (protein, UniProt P05155 23-500, looked up)
Plasma protease C1 inhibitor: NPNATSSSSQDPESLQDRGEGKVATTVISKMLFVEPILEVSSLPTTNSTTNSATKITANTTDEPTTQPTTEPTTQPTIQPTQPTTQLPTDSPTQPTTGSFCPGPVTLCSDLESHSTEAVLGDALVDFSLKLYHAFSAMKKVETNMAFSPFSIASLLTQVLLGAGENTKTNLESILSYPKDFTCVHQALKGFTTKGVTSVSQIFHSPDLAIRDTFVNASRTLYSSSPRVLSNNSDANLELINTWVAKNTNNKISRLLDSLPSDTRLVLLNAIYLSAKWKTTFDPKKTRMEPFHFKNSVIKVPMMNSKKYPVAHFIDQTLKAKVGQLQLSHNLSLVILVPQNLKHRLEDMEQALSPSVFKAIMEKLEMSKFQPTLLTLPRIKVTTSQDMLSIMEKLEFFDFSYDLNLCGLTEDPDLQVSAMQHQTVLELTETGVEAAAASAISVARTLLVFEVQQPFLFVLWDQQHKFPVFMGRVYDPRA

Columns and labels:
astrocytes [1] = experiment: Plasma kallikrein-induced ERK phosphorylation in astrocytes; assay type: cell-based; conditions: astrocytes exposed to plasma kallikrein
Excerpt: (§1) We have also studied the effects of plasma kallikrein pathway activation on astrocytes. […] Exposure of astrocytes to plasma kallikrein potently stimulated ERK phosphorylation, and this action of kallikrein on astrocytes is not affected by B2-R antagonism (Hoe140). The effect of kallikrein on astrocytes was blocked by leupeptin, a protease inhibitor and C1-INH (data not shown). […] This is in contrast to the bradykinin effect, which is rapid and transient (data not shown). Plasma kallikrein's effect on ERK phosphorylation in astrocytes is dose dependent, reaching a maximal effect at 100 nM kallikrein (data not shown). […] In addition, plasma kallikrein binding to astrocytes was blocked by AS-440 (FIG. 9B) and C1-INH (data not shown).

astrocytes [2] = experiment: Plasma kallikrein binding to astrocytes; assay type: cell-based
Excerpt: as §1

blood-induced hematoma = experiment: Hematoma after intracerebral infusion of autologous blood in diabetic rats; assay type: in vivo, Sprague-Dawley rats; conditions: systemic treatment, 48 h after intracerebral infusion of autologous blood
Method: We have compared the response to intracerebral infusion of blood in Sprague-Dawley rats with 1 mo of STZ-induced diabetes with age matched non-diabetic control rats. Fifty μL of autologous whole blood was collected from the tail vein and immediately infused 1 mm anterior, 4 mm lateral and 6 mm in depth to the bregma using a 30 gauge needle at 20 μL per minute. The infusion needle was removed 10 min after injection and the burr hole was sealed with bone wax. Forty-eight hours after intracerebral injection, the animals were perfused with saline and surface hematoma area was examined by measurement of hematoma area relative to total hemisphere area.

brain astrocytes = experiment: Bradykinin-induced ERK phosphorylation in brain astrocytes; assay type: cell-based
Excerpt: as §1

bradykinin-induced RVP = experiment: Bradykinin-induced RVP in rats (vitreous fluorophotometry); assay type: in vivo; conditions: pretreatment 2 days, 12 ug/day/200 g rat, subcutaneous Alzet pump
Excerpt: (§2) FIGS. 3A-3B are a set of two bar graphs that show the effects of intravitreal injection of kallikrein (FIG. 3A) and bradykinin (FIG. 3B) on RVP in rats measured using vitreous fluorophotometry. Activators of the kallikrein pathway, including purified activated plasma kallikrein, factor XII (FXII), high molecular weight kininogen (HK), and bradykinin, increase retinal vascular permeability (RVP) to fluorescein. In addition, inhibitors of the kallikrein pathway, such as complement I inhibitors and α2-macroglobulin reduced RVP. Direct injection of these kallikrein pathway activators into the vitreous was observed by SLO fundus imaging of the leakage from first phase fluorescein following bolus intravenous injection (FIG. 2) and by vitreous fluorophotometry, which measure the levels of fluorescein in the vitreous 30 min after intravenous injection (FIG. 5A). […] In addition, intravitreal injection of bradykinin can acutely increase RVP (FIGS. 2A and 2B). Moreover, pretreatment of rats for 2 days with Hoe140 (Bradykinin R2 antagonist, 12 ug/day/200 g rat delivered using a subcutaneous Alzet pump) inhibited bradykinin-induced RVP (FIG. 3B).

[3] = tested on: AngII-induced retinal vascular permeability; experiment: AngII-induced retinal vascular permeability in rats; assay type: in vivo, rat; conditions: AngII and ASP-465 via 2 Alzet pumps for 3 days; vitreous fluorophotometry
Method: Rats were implanted with a single subcutaneous osmotic pump containing Ang II or two pumps containing AngII and ASP-465, as indicated. RVP was measured using vitreous fluorophotometry after 3 days.
RVP was measured using Evan's blue dye method after 7 days.
We examined the effect of the kallikrein inhibitor ASP-465 on RVP induced by angiotensin II (AngII).

[4] = tested on: retinal vascular permeability (RVP); experiment: Retinal vascular permeability to fluorescein, kallikrein pathway inhibitors; conditions: in vivo
Excerpt: as §2, with “Activators” for “FIGS. 3A-3B are a set of two bar graphs that show the effects of intravitreal injection of kallikrein (FIG. 3A) and bradykinin (FIG. 3B) on RVP in rats measured using vitreous fluorophotometry. Activators”

Row | Molecule | effect of kallikrein on ERK phosphorylation (astrocytes [1]) | RVP [4] | also measured
1 | C1-INH: C1-Esterase inhibitor, a serpin; major inhibitor of the classical complement pathway, contact activation system and intrinsic coagulation | blocked | – | plasma kallikrein binding to astrocytes (astrocytes [2]): blocked
2 | CC(=O)N[C@@H](CC(C)C)C(=O)N[C@@H](CC(C)C)C(=O)N[C@H](C=O)CCCNC(=N)N [leupeptin, reference compound] | blocked | – | –
3 | Hoe140 [reference compound] | not affected | – | hematoma area (blood-induced hematoma): did not reduce; bradykinin-induced ERK phosphorylation (brain astrocytes): blocked; bradykinin-induced RVP (bradykinin-induced RVP): inhibited
4 | Cc1cc(C(=O)NCc2ccc(C(=N)N)cc2)c(C)n1Cc1ccncc1 [ASP-465, 2,5-Dimethyl-1-pyridin-4-ylmethyl-1H-pyrrole-3-carboxylic acid 4-carbamimidoyl-benzylamide] | – | – | RVP [3]: normal levels of RVP
5 | B1 | – | reduced RVP | –
6 | B2 | – | reduced RVP | –
